In US10894784B2, “Heteroarylbenzimidazole compounds” (BAYER PHARMA AKTIENGESELLSCHAFT, priority 2015, dated 2021):

molecular target: TBK1 (Homo sapiens (Human), UniProt Q9UHD2); assay: TBK1 low ATP kinase assay (in vitro assay 1); assay type: biochemical; conditions: TBK1 low ATP kinase assay IC50, in vitro assay 1
Sequence (Q9UHD2 whole entry): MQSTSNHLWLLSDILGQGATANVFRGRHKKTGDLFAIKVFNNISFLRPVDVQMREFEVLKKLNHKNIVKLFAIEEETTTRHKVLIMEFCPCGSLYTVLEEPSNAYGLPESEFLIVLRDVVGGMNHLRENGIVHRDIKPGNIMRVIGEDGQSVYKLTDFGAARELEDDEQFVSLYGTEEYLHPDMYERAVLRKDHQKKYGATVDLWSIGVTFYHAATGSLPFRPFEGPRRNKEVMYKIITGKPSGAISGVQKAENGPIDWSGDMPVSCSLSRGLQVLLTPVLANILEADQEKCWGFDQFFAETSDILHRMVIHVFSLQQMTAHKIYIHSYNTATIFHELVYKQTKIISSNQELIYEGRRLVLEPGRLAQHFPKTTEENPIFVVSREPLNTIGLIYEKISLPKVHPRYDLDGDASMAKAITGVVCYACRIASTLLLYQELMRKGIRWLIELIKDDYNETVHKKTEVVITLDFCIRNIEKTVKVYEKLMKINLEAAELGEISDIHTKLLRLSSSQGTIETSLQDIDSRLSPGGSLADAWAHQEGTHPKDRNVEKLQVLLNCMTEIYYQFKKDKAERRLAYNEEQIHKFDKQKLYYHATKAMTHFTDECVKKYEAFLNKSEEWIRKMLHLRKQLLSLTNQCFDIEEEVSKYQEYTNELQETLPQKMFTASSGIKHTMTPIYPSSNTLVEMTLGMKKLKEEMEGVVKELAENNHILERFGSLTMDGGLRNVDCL

Row | IC50 | Molecule
1 | 33 nM | Cc1noc(-c2ccc3nc(Nc4cc(C(C)N5CCN(C(=O)CC(F)(F)F)CC5)ccn4)[nH]c3c2)n1 (racemic) [Example 16.05.02, (rac)-3,3,3-trifluoro-1-{4-[1-(2-{[6-(3-methyl-1,2,4-oxadiazol-5-yl)-1H-benzimidazol-2-yl]amino}pyridin-4-yl)ethyl]piperazin-1-yl}propan-1-one]
2 | 4.46 nM | Cc1cc(-c2ccc3nc(Nc4cc(C(C)N5CCN(C(=O)CC(F)(F)F)CC5)ccn4)[nH]c3c2)ncn1 (racemic) [Example 30.02.01, (rac)-3,3,3-trifluoro-1-{4-[1-(2-{[6-(6-methylpyrimidin-4-yl)-1H-benzimidazol-2-yl]amino}pyridin-4-yl)ethyl]piperazin-1-yl}propan-1-one]

same assay, conditions: in vitro assay 1, read-out: TBK1 low ATP kinase assay IC50

Row | IC50 | Molecule
3 | 7.1 nM | 1-(4-{(1R or 1S)-1-[2-({6-[1-(cyclopentylmethyl)-1H-pyrazol-4-yl]-1H-benzimidazol-2-yl}amino)pyridin-4-yl]ethyl}piperazin-1-yl)-3,3,3-trifluoropropan-1-one [Example 71.02]
4 | 1.5 nM | 3,3,3-trifluoro-1-{4-[(1R or 1S)-1-{2-[(6-{1-[(1-methylcyclopropyl)methyl]-1H-pyrazol-4-yl}-1H-benzimidazol-2-yl)amino]pyridin-4-yl}ethyl]piperazin-1-yl}propan-1-one [Example 68.02]
5 | 13.8 nM | COc1cnccc1-c1ccc2nc(Nc3cc(CN4CCN(C(=O)C5CC5(F)F)CC4)ccn3)[nH]c2c1 (racemic) [Example 04.08, ((1RS)-2,2-difluorocyclopropyl){4-[(2-{[6-(3-methoxypyridin-4-yl)-1H-benzimidazol-2-yl]amino}pyridin-4-yl)methyl]piperazin-1-yl}methanone]
6 | 82.5 nM | Cc1noc(-c2ccc3nc(Nc4cc(C(C)N5CCN(C(=O)OC(C)(C)C)CC5)ccn4)[nH]c3c2)n1 (racemic) [Example 16.05.01, (rac)-tert-butyl 4-[1-(2-{[6-(3-methyl-1,2,4-oxadiazol-5-yl)-1H-benzimidazol-2-yl]amino}pyridin-4-yl)ethyl]piperazine-1-carboxylate]
7 | 43.1 nM | Cc1noc(-c2ccc3nc(Nc4cc(C(C)N5CCN(C(=O)C6CC6)CC5)ccn4)[nH]c3c2)n1 (racemic) [Example 16.05.03, (rac)-cyclopropyl{4-[1-(2-{[6-(3-methyl-1,2,4-oxadiazol-5-yl)-1H-benzimidazol-2-yl]amino}pyridin-4-yl)ethyl]piperazin-1-yl}methanone]
8 | 3.44 nM | CC(c1ccnc(Nc2nc3ccc(-c4ccncn4)cc3[nH]2)c1)N1CCN(C(=O)C2CCC2)CC1 (racemic) [Example 23.04.01, (rac)-cyclobutyl{4-[1-(2-{[6-(pyrimidin-4-yl)-1H-benzimidazol-2-yl]amino}pyridin-4-yl)ethyl]piperazin-1-yl}methanone]
9 | 2.42 nM | CC(c1ccnc(Nc2nc3ccc(-c4ccncn4)cc3[nH]2)c1)N1CCN(C(=O)C2CC2)CC1 (racemic) [Example 23.04.02, (rac)-cyclopropyl{4-[1-(2-{[6-(pyrimidin-4-yl)-1H-benzimidazol-2-yl]amino}pyridin-4-yl)ethyl]piperazin-1-yl}methanone]
10 | 2.47 nM | CC(c1ccnc(Nc2nc3ccc(-c4ccncn4)cc3[nH]2)c1)N1CCN(C(=O)CC(F)(F)F)CC1 (racemic) [Example 23.04.03, (rac)-3,3,3-trifluoro-1-{4-[1-(2-{[6-(pyrimidin-4-yl)-1H-benzimidazol-2-yl]amino}pyridin-4-yl)ethyl]piperazin-1-yl}propan-1-one]
11 | 9.19 nM | Cc1nccc(-c2ccc3nc(Nc4cc(C(C)N5CCN(C(=O)C6CC6)CC5)ccn4)[nH]c3c2)n1 (racemic) [Example 24.04.01, (rac)-cyclopropyl{4-[1-(2-{[6-(2-methylpyrimidin-4-yl)-1H-benzimidazol-2-yl]amino}pyridin-4-yl)ethyl]piperazin-1-yl}methanone]
12 | 16.1 nM | Cc1nccc(-c2ccc3nc(Nc4cc(C(C)N5CCN(C(=O)C6CCC6)CC5)ccn4)[nH]c3c2)n1 (racemic) [Example 24.04.02, (rac)-cyclobutyl{4-[1-(2-{[6-(2-methylpyrimidin-4-yl)-1H-benzimidazol-2-yl]amino}pyridin-4-yl)ethyl]piperazin-1-yl}methanone]
13 | 12.4 nM | Cc1nccc(-c2ccc3nc(Nc4cc(C(C)N5CCN(C(=O)CC(F)(F)F)CC5)ccn4)[nH]c3c2)n1 (racemic) [Example 24.04.03, (rac)-3,3,3-trifluoro-1-{4-[1-(2-{[6-(2-methylpyrimidin-4-yl)-1H-benzimidazol-2-yl]amino}pyridin-4-yl)ethyl]piperazin-1-yl}propan-1-one]
14 | 14.4 nM | Cc1nccc(-c2ccc3nc(Nc4cc(C(C)N5CCN(C(=O)CC6CC6)CC5)ccn4)[nH]c3c2)n1 (racemic) [Example 24.04.04, (rac)-2-cyclopropyl-1-{4-[1-(2-{[6-(2-methylpyrimidin-4-yl)-1H-benzimidazol-2-yl]amino}pyridin-4-yl)ethyl]piperazin-1-yl}ethanone]
15 | 4.68 nM | CCOc1nccc(-c2ccc3nc(Nc4cc(C(C)N5CCN(C(=O)CC(F)(F)F)CC5)ccn4)[nH]c3c2)n1 (racemic) [Example 26.02.01, (rac)-1-{4-[1-(2-{[6-(2-ethoxypyrimidin-4-yl)-1H-benzimidazol-2-yl]amino}pyridin-4-yl)ethyl]piperazin-1-yl}-3,3,3-trifluoropropan-1-one]
16 | 3.47 nM | CC(c1ccnc(Nc2nc3ccc(-c4cc(C(F)(F)F)ncn4)cc3[nH]2)c1)N1CCN(C(=O)C2CC2)CC1 (racemic) [Example 29.01.02, (rac)-cyclopropyl(4-{1-[2-({6-[6-(trifluoromethyl)pyrimidin-4-yl]-1H-benzimidazol-2-yl}amino)pyridin-4-yl]ethyl}piperazin-1-yl)methanone]
17 | 7.86 nM | Cc1cc(-c2ccc3nc(Nc4cc(C(C)N5CCN(C(=O)C6CCC6)CC5)ccn4)[nH]c3c2)ncn1 (racemic) [Example 30.02.02, (rac)-cyclobutyl{4-[1-(2-{[6-(6-methylpyrimidin-4-yl)-1H-benzimidazol-2-yl]amino}pyridin-4-yl)ethyl]piperazin-1-yl}methanone]
18 | 3.73 nM | Cc1cc(-c2ccc3nc(Nc4cc(C(C)N5CCN(C(=O)C6CC6)CC5)ccn4)[nH]c3c2)ncn1 (racemic) [Example 30.02.03, (rac)-cyclopropyl{4-[1-(2-{[6-(6-methylpyrimidin-4-yl)-1H-benzimidazol-2-yl]amino}pyridin-4-yl)ethyl]piperazin-1-yl}methanone]
19 | 9.35 nM | Cc1cc(-c2ccc3nc(Nc4cc(C(C)N5CCN(C(=O)CC6CC6)CC5)ccn4)[nH]c3c2)ncn1 (racemic) [Example 30.02.04, (rac)-2-cyclopropyl-1-{4-[1-(2-{[6-(6-methylpyrimidin-4-yl)-1H-benzimidazol-2-yl]amino}pyridin-4-yl)ethyl]piperazin-1-yl}ethanone]
20 | 12.4 nM | COc1cc(-c2ccc3nc(Nc4cc(C(C)N5CCN(C(=O)CC(F)(F)F)CC5)ccn4)[nH]c3c2)ncn1 (racemic) [Example 34.02.01, (rac)-3,3,3-trifluoro-1-{4-[1-(2-{[6-(6-methoxypyrimidin-4-yl)-1H-benzimidazol-2-yl]amino}pyridin-4-yl)ethyl]piperazin-1-yl}propan-1-one]
